Assay results as given in PubChem BioAssay AID248 (DTP/NCI, 2004).
Several values for one entry are separate records, joined by “and”; a condition that tells them apart may be missing. Equal entries are not always repeated. Inconclusive results and toxic doses are left out. Cut-off read from the data, not from the text of the source: active = T/C of 150% or more; inactive = T/C below 125%.

Tested on: L1210 leukemia ip in BDF1 mice, survival T/C
Assay: NCI In Vivo Anticancer Drug Screen. Data for tumor model L1210 Leukemia (intraperitoneal) in B6D2F1 (BDF1) mice
Details: higher = longer survival
In short: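 Mice bearing the transplanted tumor received compound or vehicle. Survival of the treated group was divided by that of the vehicle-treated control group to give the ratio.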

Measured: T/C

COc1cccc2c1C(=O)c1c(O)c3c(c(O)c1C2=O)C[C@@](O)(C(=O)CO)C[C@@H]3OC1CC(N)C(O)C(C)O1 (stereo partly specified)
inactive: endpoint: mean survival time, dose: 0.09 mg/kg/injection, schedule: Q01DX009 (ip), vehicle: saline 106 % of control | endpoint: mean survival time, dose: 0.18 mg/kg/injection, schedule: Q01DX009 (ip), vehicle: saline 107 % of control and 113 % of control | endpoint: mean survival time, dose: 0.2 mg/kg/injection, schedule: Q01DX009 (ip), vehicle: water 112 % of control | endpoint: mean survival time, dose: 0.28 mg/kg/injection, schedule: Q04DX002 (ip), vehicle: saline 110 % of control and 120 % of control | endpoint: mean survival time, dose: 0.3 mg/kg/injection, schedule: Q01DX015 (ip), vehicle: clinical formulation 116 % of control | endpoint: mean survival time, dose: 0.44 mg/kg/injection, schedule: Q01DX015 (ip), vehicle: clinical formulation 119 % of control | endpoint: mean survival time, dose: 0.5 mg/kg/injection, schedule: Q01DX003 (ip), vehicle: water 115 % of control | endpoint: mean survival time, dose: 0.5 mg/kg/injection, schedule: Q## X Z (ip), vehicle: water 113 % of control | endpoint: mean survival time, dose: 0.55 mg/kg/injection, schedule: Q04DX002 (ip), vehicle: saline 103 % of control and 108 % of control | endpoint: mean survival time, dose: 1.0 mg/kg/injection, schedule: Q01DX009 (sc), vehicle: clinical formulation 107 % of control | endpoint: mean survival time, dose: 1.0 mg/kg/injection, schedule: Q03HX024 (ip), vehicle: water 111 % of control | endpoint: mean survival time, dose: 1.0 mg/kg/injection, schedule: Q04DX004 (ip), vehicle: clinical formulation 117 % of control | endpoint: mean survival time, dose: 1.5 mg/kg/injection, schedule: Q01DX009 (sc), vehicle: clinical formulation 108 % of control | endpoint: mean survival time, dose: 2.0 mg/kg/injection, schedule: Q03HX024 (ip), vehicle: water 93 % of control | endpoint: mean survival time, dose: 2.2 mg/kg/injection, schedule: Q01DX009 (sc), vehicle: clinical formulation 113 % of control | endpoint: mean survival time, dose: 3.0 mg/kg/injection, schedule: Q01DX009 (ip), vehicle: saline 107 % of control | endpoint: mean survival time, dose: 3.3 mg/kg/injection, schedule: Q01DX009 (sc), vehicle: clinical formulation 117 % of control | endpoint: mean survival time, dose: 4.0 mg/kg/injection, schedule: Q01DX008 (ip), vehicle: saline 98 % of control | endpoint: mean survival time, dose: 4.9 mg/kg/injection, schedule: Q01DX009 (sc), vehicle: clinical formulation 110 % of control | endpoint: mean survival time, dose: 5.0 mg/kg/injection, schedule: Q01DX009 (ip), vehicle: saline 93 % of control | endpoint: mean survival time, dose: 20.0 mg/kg/injection, schedule: Q01DX001 (ip), vehicle: saline 108 % of control | endpoint: mean survival time, dose: 100.0 micrograms/kg/injection, schedule: Q03HX032 (ip), vehicle: clinical formulation 117 % of control | endpoint: mean survival time, dose: 150.0 micrograms/kg/injection, schedule: Q03HX032 (ip), vehicle: clinical formulation 120 % of control | endpoint: median survival time, dose: 0.12 mg/kg/injection, schedule: Q03HX008 (ip), vehicle: water 120 % of control | endpoint: median survival time, dose: 0.13 mg/kg/injection, schedule: Q03HX008 (ip), vehicle: water 119 % of control | endpoint: median survival time, dose: 0.23 mg/kg/injection, schedule: Q04DX003 (ip), vehicle: water 113 % of control | endpoint: median survival time, dose: 0.25 mg/kg/injection, schedule: Q01DX009 (ip), vehicle: water 115 % of control | endpoint: median survival time, dose: 0.28 mg/kg/injection, schedule: Q03HX008 (ip), vehicle: water 111 % of control | endpoint: median survival time, dose: 0.47 mg/kg/injection, schedule: Q03HX008 (ip), vehicle: water 111 % of control | endpoint: median survival time, dose: 0.5 mg/kg/injection, schedule: Q01DX001 (ip), vehicle: water 113 % of control and 116 % of control | endpoint: median survival time, dose: 0.5 mg/kg/injection, schedule: Q01DX009 (ip), vehicle: water 115 % of control and 119 % of control | endpoint: median survival time, dose: 0.5 mg/kg/injection, schedule: Q03HX024 (ip), vehicle: water 114 % of control | endpoint: median survival time, dose: 0.65 mg/kg/injection, schedule: Q01DX005 (sc), vehicle: water 110 % of control | endpoint: median survival time, dose: 0.65 mg/kg/injection, schedule: Q01DX009 (ip), vehicle: water 104 % of control | endpoint: median survival time, dose: 0.65 mg/kg/injection, schedule: Q03HX008 (sc), vehicle: water 110 % of control | endpoint: median survival time, dose: 0.75 mg/kg/injection, schedule: Q04DX003 (ip), vehicle: water 109 % of control | endpoint: median survival time, dose: 0.78 mg/kg/injection, schedule: Q03HX008 (ip), vehicle: water 105 % of control | endpoint: median survival time, dose: 1.0 mg/kg/injection, schedule: Q01DX009 (ip), vehicle: water 115 % of control | endpoint: median survival time, dose: 1.0 mg/kg/injection, schedule: Q03HX024 (ip), vehicle: water 93 % of control and 110 % of control | endpoint: median survival time, dose: 1.0 mg/kg/injection, schedule: Q04DX003 (ip), vehicle: water 119 % of control | endpoint: median survival time, dose: 1.0 mg/kg/injection, schedule: Q## X001 (ip), vehicle: saline 113 % of control | endpoint: median survival time, dose: 1.08 mg/kg/injection, schedule: Q01DX005 (sc), vehicle: water 105 % of control | endpoint: median survival time, dose: 1.08 mg/kg/injection, schedule: Q01DX009 (ip), vehicle: water 104 % of control and 113 % of control | endpoint: median survival time, dose: 1.17 mg/kg/injection, schedule: Q04DX003 (ip), vehicle: water 100 % of control | endpoint: median survival time, dose: 1.25 mg/kg/injection, schedule: Q04DX003 (ip), vehicle: water 115 % of control | endpoint: median survival time, dose: 1.5 mg/kg/injection, schedule: Q04DX003 (ip), vehicle: water 102 % of control | endpoint: median survival time, dose: 1.75 mg/kg/injection, schedule: Q04DX003 (ip), vehicle: water 100 % of control | endpoint: median survival time, dose: 1.8 mg/kg/injection, schedule: Q01DX001 (ip), vehicle: water 95 % of control and 113 % of control and 120 % of control | endpoint: median survival time, dose: 1.8 mg/kg/injection, schedule: Q01DX005 (sc), vehicle: water 110 % of control | endpoint: median survival time, dose: 1.8 mg/kg/injection, schedule: Q01DX009 (ip), vehicle: water 109 % of control and 113 % of control | endpoint: median survival time, dose: 1.8 mg/kg/injection, schedule: Q08DX002 (ip), vehicle: water 100 % of control and 118 % of control | endpoint: median survival time, dose: 2.0 mg/kg/injection, schedule: Q01DX009 (ip), vehicle: water 104 % of control | endpoint: median survival time, dose: 2.0 mg/kg/injection, schedule: Q## X001 (ip), vehicle: saline 118 % of control | endpoint: median survival time, dose: 2.6 mg/kg/injection, schedule: Q04DX003 (ip), vehicle: water 116 % of control | endpoint: median survival time, dose: 3.0 mg/kg/injection, schedule: Q01DX009 (ip), vehicle: water 109 % of control | endpoint: median survival time, dose: 3.0 mg/kg/injection, schedule: Q08DX002 (ip), vehicle: water 100 % of control and 118 % of control | endpoint: median survival time, dose: 3.0 mg/kg/injection, schedule: Q12DX002 (ip), vehicle: water 117 % of control | endpoint: median survival time, dose: 3.9 mg/kg/injection, schedule: Q01DX001 (ip), vehicle: water 105 % of control | endpoint: median survival time, dose: 5.0 mg/kg/injection, schedule: Q12DX002 (ip), vehicle: water 119 % of control | endpoint: median survival time, dose: 5.9 mg/kg/injection, schedule: Q04DX003 (ip), vehicle: water 111 % of control | endpoint: median survival time, dose: 6.0 mg/kg/injection, schedule: Q01DX001 (ip), vehicle: water 115 % of control | endpoint: median survival time, dose: 6.0 mg/kg/injection, schedule: Q04DX003 (ip), vehicle: water 103 % of control | endpoint: median survival time, dose: 8.0 mg/kg/injection, schedule: Q04DX003 (ip), vehicle: water 94 % of control and 97 % of control (2×) | endpoint: median survival time, dose: 8.3 mg/kg/injection, schedule: Q04DX003 (ip), vehicle: water 116 % of control | endpoint: median survival time, dose: 8.4 mg/kg/injection, schedule: Q08DX002 (ip), vehicle: water 104 % of control and 118 % of control | endpoint: median survival time, dose: 8.9 mg/kg/injection, schedule: Q04DX003 (ip), vehicle: water 100 % of control | endpoint: median survival time, dose: 10.0 mg/kg/injection, schedule: Q04DX003 (ip), vehicle: water 94 % of control and 100 % of control and 103 % of control | endpoint: median survival time, dose: 10.0 mg/kg/injection, schedule: Q08DX002 (ip), vehicle: water 111 % of control | endpoint: median survival time, dose: 12.0 mg/kg/injection, schedule: Q01DX001 (ip), vehicle: water 120 % of control | endpoint: median survival time, dose: 13.3 mg/kg/injection, schedule: Q01DX001 (ip), vehicle: water 105 % of control | endpoint: median survival time, dose: 14.0 mg/kg/injection, schedule: Q08DX002 (ip), vehicle: water 95 % of control and 104 % of control | endpoint: median survival time, dose: 24.0 mg/kg/injection, schedule: Q01DX001 (ip), vehicle: water 114 % of control

Cc1ccc(N2C(=O)CCC2=O)c(C)c1
inactive: endpoint: mean survival time, dose: 50.0 mg/kg/injection, schedule: Q01DX001 (ip), vehicle: carboxymethylcellulose (CMC) 104 % of control | endpoint: mean survival time, dose: 100.0 mg/kg/injection, schedule: Q01DX001 (ip), vehicle: carboxymethylcellulose (CMC) 98 % of control | endpoint: mean survival time, dose: 200.0 mg/kg/injection, schedule: Q01DX001 (ip), vehicle: carboxymethylcellulose (CMC) 102 % of control | endpoint: mean survival time, dose: 400.0 mg/kg/injection, schedule: Q01DX001 (ip), vehicle: carboxymethylcellulose (CMC) 98 % of control
